Measured values as given in article PMC2645942 (Journal of medicinal chemistry, 2008).

Experiments:
[1] = biological target: αY209Cβγ (α1Y209Cβ2γ2 GABAA receptor) (Rattus norvegicus, UniProt P18508+P62813, INS375LLRMFSFK/Y236C); test: Radioligand binding, αY209Cβγ mutant
[2] = biological target: αβγF77C (α1β2γ2F77C GABAA receptor) (Rattus norvegicus, UniProt P18508+P62813, F115C/INS375LLRMFSFK); test: Radioligand binding, αβγF77C mutant
[3] = biological target: αD97Cβγ (α1D97Cβ2γ2 GABAA receptor) (Rattus norvegicus, UniProt P18508+P62813, D124C/INS375LLRMFSFK); test: Radioligand binding, αD97Cβγ mutant

Measured: specific binding of radioligand

CCOC(=O)c1ncn2c1CN(C)C(=O)c1cc(F)ccc1-2 [Ro15-1788, ethyl 8-fluoro-5,6-dihydro-5-methyl-6-oxo-4H-imidazo[1,5-a][1,4]benzodiazepine-3-carboxylate]
not measurable: all assays above

CN1C(=O)CN=C(c2ccccc2F)c2cc([N+](=O)[O-])ccc21 [flunitrazepam]
not measurable: all assays above
